Data on 6 molecules can be found in US20250115597A1, “TYK2 INHIBITORS AND COMPOSITIONS AND METHODS THEREOF” (LYNK PHARMACEUTICALS CO. LTD., priority 2021, published 2025).

The target in one data set is T1, Ba/F3-TEL-JAK2 cells (Homo sapiens, UniProt O60674).
T1 construct: fused on or other part: Dimerization domain of TEL (ETV6) fused to the JAK2 kinase domain; P41212 (Transcription factor ETV6)
Description: Anti-proliferative assay, Ba/F3-TEL-JAK2 cells (Cell-Titer Glo). In kind it is cell-based. The note with it: 72 h, read-out: BaF3-TEL-JAK2 IC50. The procedure:
(§1) Anti-Proliferative Assay Dimerization domain of Tel protein fused with JAK kinase domain was permanently transduced into Ba/F3 cells, whose proliferation is dependent on JAK activity in the absence of IL-3 induction. These engineered Ba/F3 cells (Ba/F3-FL-TYK2-[…], Ba/F3-TEL-TYK2 and Ba/F3-TEL-JAK2) were used to monitor JAK inhibitory activities of the compounds in the cellular. […] Cells were seeded at 2000/well of white flat bottom 96-well plates. The well containing medium only was used as background control. After 24 h growth, cells were treated with compounds. The test compounds were dissolved in DMSO to a stock concentration of 20 mM. 3-fold serially diluted compounds for 9 concentrations with top concentration of 20 μM was added into the each well. […] The cells continued to grow at 37° C. in 5% CO2 for 72 h after compound treatment. The viability was measured by cellular ATP determination using the Cell-Titer Glo luciferase reagent (Promega). The Luminescence value was recorded by a multi-label reader Envision (PerkinElmer).

Data set [1] concerns the target T2, Ba/F3-FL-TYK2-P760L cells (Homo sapiens, UniProt P29597, P760L, cells depend on it).
T2 construct: BaF3-FL-T2P760L (nM)
Description: Anti-proliferative assay, Ba/F3-FL-TYK2-P760L cells (Cell-Titer Glo). In kind it is cell-based. The note with it: 72 h, read-out: BaF3-FL-T2P760L IC50. An outline of the steps: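 Compound exposure ran 72 h at 37 °C in 5% CO2 across nine 3-fold concentrations from a 20 μM top dose, added 24 h after seeding 2000 cells/well.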

In another data set the target is T3, Ba/F3-TEL-TYK2 cells (Homo sapiens, UniProt P29597).
T3 construct: fused on or other part: Dimerization domain of TEL (ETV6) fused to the TYK2 kinase domain; P41212 (Transcription factor ETV6)
T3 sequence (P29597 whole entry, change not shown, the tested form may be a part): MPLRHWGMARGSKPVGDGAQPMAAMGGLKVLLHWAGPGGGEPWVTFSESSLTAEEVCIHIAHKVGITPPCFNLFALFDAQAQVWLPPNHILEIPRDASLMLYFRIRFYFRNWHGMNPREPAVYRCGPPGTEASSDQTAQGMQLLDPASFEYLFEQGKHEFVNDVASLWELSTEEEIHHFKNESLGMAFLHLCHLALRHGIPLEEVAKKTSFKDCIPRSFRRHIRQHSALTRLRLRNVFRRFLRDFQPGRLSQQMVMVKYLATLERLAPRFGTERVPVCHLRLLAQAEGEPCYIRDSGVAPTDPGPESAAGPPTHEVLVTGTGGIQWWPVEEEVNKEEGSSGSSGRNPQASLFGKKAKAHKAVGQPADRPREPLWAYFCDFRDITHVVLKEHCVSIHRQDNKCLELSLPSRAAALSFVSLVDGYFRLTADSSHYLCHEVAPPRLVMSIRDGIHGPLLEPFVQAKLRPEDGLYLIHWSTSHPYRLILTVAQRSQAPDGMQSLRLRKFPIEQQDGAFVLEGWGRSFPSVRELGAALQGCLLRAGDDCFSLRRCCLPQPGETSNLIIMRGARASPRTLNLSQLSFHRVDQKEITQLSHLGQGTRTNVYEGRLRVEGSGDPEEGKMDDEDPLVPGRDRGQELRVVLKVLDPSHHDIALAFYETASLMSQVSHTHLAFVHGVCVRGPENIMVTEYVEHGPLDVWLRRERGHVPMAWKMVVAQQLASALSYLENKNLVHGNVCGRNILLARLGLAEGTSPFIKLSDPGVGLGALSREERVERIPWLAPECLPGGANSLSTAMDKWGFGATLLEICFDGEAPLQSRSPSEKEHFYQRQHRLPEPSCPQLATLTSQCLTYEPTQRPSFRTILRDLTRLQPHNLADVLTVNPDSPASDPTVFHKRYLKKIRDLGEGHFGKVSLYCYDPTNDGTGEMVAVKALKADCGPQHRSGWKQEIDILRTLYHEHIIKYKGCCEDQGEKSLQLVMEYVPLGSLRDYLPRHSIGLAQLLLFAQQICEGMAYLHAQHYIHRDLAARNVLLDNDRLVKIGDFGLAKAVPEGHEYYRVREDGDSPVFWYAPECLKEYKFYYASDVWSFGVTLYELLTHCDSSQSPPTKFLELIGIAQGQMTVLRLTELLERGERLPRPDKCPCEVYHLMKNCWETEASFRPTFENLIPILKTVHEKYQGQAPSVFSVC
The data set is described as follows: Anti-proliferative assay, Ba/F3-TEL-TYK2 cells (Cell-Titer Glo). In kind it is cell-based. To be noted: 72 h, read-out: BaF3-TEL-TYK2 IC50. The procedure:
as §1

Data set [2] in a line: Microsomal metabolic stability assay. In kind it is in vitro ADME. The note with it: pH 7.4, 0.5 mg/mL protein, 1 μM compound. An outline of the steps: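 Parent loss was tracked by LC/MS/MS at 0, 5, 15, 30 and 45 min, with half-life derived from the ln(% remaining)–time slope. Incubation at 37 °C, pH 7.4 phosphate/EDTA buffer: 0.5 mg/mL microsomes, 1 μM compound, NADPH-regenerated (2 mM).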

Like-named read-outs stand apart in the source and are kept apart here.

T1 sequence (O60674 whole entry, change not shown, the tested form may be a part): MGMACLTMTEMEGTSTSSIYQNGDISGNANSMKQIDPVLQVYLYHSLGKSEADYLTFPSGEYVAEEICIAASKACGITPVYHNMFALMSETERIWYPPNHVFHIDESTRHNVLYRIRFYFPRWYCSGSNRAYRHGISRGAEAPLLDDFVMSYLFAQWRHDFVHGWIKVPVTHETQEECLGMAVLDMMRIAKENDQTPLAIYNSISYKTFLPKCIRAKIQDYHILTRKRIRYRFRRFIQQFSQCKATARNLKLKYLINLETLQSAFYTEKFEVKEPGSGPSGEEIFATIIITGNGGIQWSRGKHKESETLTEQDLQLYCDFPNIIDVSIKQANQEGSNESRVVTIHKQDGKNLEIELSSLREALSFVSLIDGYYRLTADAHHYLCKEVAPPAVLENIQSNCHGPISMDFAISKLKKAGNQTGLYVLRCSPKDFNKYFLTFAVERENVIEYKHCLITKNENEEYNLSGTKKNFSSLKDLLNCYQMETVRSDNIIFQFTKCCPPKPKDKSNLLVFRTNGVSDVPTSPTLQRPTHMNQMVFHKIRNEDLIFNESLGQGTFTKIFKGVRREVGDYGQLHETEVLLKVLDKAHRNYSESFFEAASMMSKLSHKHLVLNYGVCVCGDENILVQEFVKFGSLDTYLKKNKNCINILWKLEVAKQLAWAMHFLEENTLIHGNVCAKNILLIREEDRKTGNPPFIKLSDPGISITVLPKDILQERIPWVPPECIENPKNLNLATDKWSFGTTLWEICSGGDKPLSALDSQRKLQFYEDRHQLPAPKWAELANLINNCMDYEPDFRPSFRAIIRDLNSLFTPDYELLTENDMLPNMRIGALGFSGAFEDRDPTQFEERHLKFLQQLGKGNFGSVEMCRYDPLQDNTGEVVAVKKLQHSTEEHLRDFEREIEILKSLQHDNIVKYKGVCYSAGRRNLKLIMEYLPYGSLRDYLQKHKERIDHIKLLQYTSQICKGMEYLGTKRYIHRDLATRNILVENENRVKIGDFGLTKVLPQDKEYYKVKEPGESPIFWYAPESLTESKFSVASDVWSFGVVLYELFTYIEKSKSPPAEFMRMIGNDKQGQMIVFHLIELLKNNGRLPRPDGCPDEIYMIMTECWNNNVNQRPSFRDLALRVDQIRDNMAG
T2 sequence (P29597 whole entry P760L): as the sequence (P29597 whole entry, change not shown, the tested form may be a part) above, with P760L counted along it

For `CCC(=O)c1cnc(Nc2ccc(F)cc2)nc1Nc1cccc(-c2ncn(C)n2)c1OC` [Example 8, 1-(2-((4-Fluorophenyl)amino)-4-((2-methoxy-3-(1-methyl-1H-1,2,4-triazol-3-yl)phenyl)amino)pyrimidin-5-yl)propan-1-one], the GI50 at Ba/F3-TEL-JAK2 cells is 7470 nM; in data set [1], 157 nM; at Ba/F3-TEL-TYK2 cells, above 20000 nM.
The corresponding values for `[2H]C([2H])([2H])NC(=O)c1cnc(Nc2ccc(Cl)cc2)nc1Nc1cccc(-c2ncn(C)n2)c1OC` [Example 3, 2-((4-Chlorophenyl)amino)-4-((2-methoxy-3-(1-methyl-1H-1,2,4-triazol-3-yl)phenyl)amino)-N-(methyl-d3) pyrimidine-5-carboxamide] are 2300 nM, 70.7 nM and 5440 nM.
The corresponding values for `CNC(=O)c1cnc2cc1Nc1cc(cc(-c3ncn(C)n3)c1OC)COCc1cccc(n1)N2` [Example 34, 10-Methoxy-N-methyl-11-(1-methyl-1,2,4-triazol-3-yl)-15-oxa-2,4,8,21-tetrazatetracyclo[15.3.1.13,7.19,13]tricosa-1(21),3(23),4,6,9,11,13(22),17,19-nonaene-6-carboxamide] are 4350 nM, 125 nM and 7180 nM.
For `[2H]C([2H])([2H])NC(=O)c1cnc(Nc2ccc(C#N)cc2)nc1Nc1cccc(-c2ncn(C)n2)c1OC` [Example 28, 2-((4-Cyanophenyl)amino)-4-((2-methoxy-3-(1-methyl-1H-1,2,4-triazol-3-yl)phenyl)amino)-N-(methyl-d3) pyrimidine-5-carboxamide], the GI50 is above 20000 nM at Ba/F3-TEL-JAK2 cells, 65 nM in data set [1] and above 20000 nM at Ba/F3-TEL-TYK2 cells. For the same molecule, the microsomal CLint at 1 μM in data set [2] (dog liver microsomes, read-out: Dog LM Clint) worked out at 4.77 µL/min/mg; in data set [2] (human liver microsomes, read-out: Human LM Clint), 2.46 µL/min/mg; in data set [2] (rat liver microsomes, read-out: Rat LM Clint), 14.3 µL/min/mg. Besides, the half-life at 1 μM in data set [2] (dog liver microsomes, read-out: Dog LM T½) turned out to be 4.84 h; in data set [2] (human liver microsomes, read-out: Human LM T½), 9.39 h; in data set [2] (rat liver microsomes, read-out: Rat LM T½) it was 1.61 h.
For the molecule `CNC(=O)c1cnc2nc1Nc1cc(cc(-c3ncn(C)n3)c1OC)COCc1cc(ccc1F)N2` [Example 36, 18-Fluoro-10-methoxy-N-methyl-11-(1-methyl-1H-1,2,4-triazol-3-yl)-15-oxa-2,4,8,23-tetraazatetracyclo[15.3.1.1^{3,7}.1^{9,13}]tricosa-1(20),3,5,7(23),9(22),10,12,17(21),18-nonaene-6-carboxamide], the GI50 was 892 nM at Ba/F3-TEL-JAK2 cells, 173 nM in data set [1] and 1960 nM at Ba/F3-TEL-TYK2 cells.
The corresponding values for `CNC(=O)c1cnc(Nc2ccc(F)cn2)cc1Nc1csc2ccn(C)c(=O)c12` [Example 15, 6-((5-Fluoropyridin-2-yl)amino)-N-methyl-4-((5-methyl-4-oxo-4,5-dihydrothieno[3,2-c]pyridin-3-yl)amino)nicotinamide] are above 20000 nM, 23.6 nM and above 20000 nM.
